According to BindingDB's records for doi:10.1016/s0960-894x(01)00038-5 (Glaxosmithkline, 2001):

Target: Lipoprotein-associated phospholipase A2 (Rattus norvegicus)
Test: Concentration required for inhibition ofLipoprotein associated phospholipase A2 in rat at dose 2 umol/kg/h

CCCCCCCCCCCCN(C)C(=O)Cn1cc(Cc2cnc(=O)n(CC(=O)O)c2)c(=O)nc1SCc1ccc(F)cc1 [{5-[1-[(Dodecyl-methyl-carbamoyl)-methyl]-2-(4-fluoro-benzylsulfanyl)-4-oxo-1,4-dihydro-pyrimidin-5-ylmethyl]-2-oxo-2H-pyrimidin-1-yl}-acetic acid]
IC50: 533 nM
